Experiments:
[1] = cited from earlier work
[2] = clinical observations during pelvic radiation for prostate carcinoma; type: in vivo, patients
From the text: The present invention originated with observations made during pelvic radiation for prostate carcinoma.

[3] = test system: PC-3 cells; settings: cited from earlier work
[4] = PC-3 cells irradiated in the presence or absence of the inhibitor

SMILES: NCCCNCCSP(=O)(O)O [Ethiol]
- dry mouth following radiation treatment ([1]; head and neck cancer): decrease the dry mouth
- acute mucosal effects ([1]; radiotherapy): does not limit acute mucosal effects

SMILES: CS(=O)(=O)c1ccc(C2=C(c3ccccc3)C(=O)OC2)cc1 [Vioxx, rofecoxib]
- fatigue associated with radiotherapy [2]: decrease
- acute mucosal effects of radiation ([2]; urinary and gastrointestinal tracts, during radiotherapy): decrease the acute mucosal effects of radiation

SMILES: CS(=O)(=O)Nc1ccc([N+](=O)[O-])cc1OC1CCCCC1 [NS-398]
- prostaglandin (PGE(2)) level in irradiated cells ([3]; PC-3 cells irradiated in the presence of the inhibitor): reduced PGE(2) levels
- apoptosis [3, 4]: no differences
- cell cycle distribution [3, 4]: no differences
